According to patent US11464770B2, “Anticancer pharmaceutical composition” (NATIONAL CANCER CENTER, priority 2016, dated 2022):
Read-outs that look alike come from different tables or passages of the source.

What was measured:
[1] = system: blood cancer cell lines (e.g. HL-60, Jurkat, Raji, Ramos, Daudi, MOLT-4); test: Cell based assay, cell viability (CellTiter-Glo), blood cancer cell lines; conditions: Homo sapiens
How it was run: (§1)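 Viability measured by ATP luminescence following 72 h treatment over a 0–2 μM final concentration range.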

[2] = system: pancreatic cancer cell lines (e.g. MIA PaCa-2); test: Cell based assay, cell viability (CellTiter-Glo), pancreatic cancer cell lines; conditions: Homo sapiens
How it was run: as §1

brain cancer cell lines = test: Cell based assay, cell viability (CellTiter-Glo), brain cancer cell lines; conditions: Homo sapiens
[3] = system: cervical carcinoma cell lines; test: Cell based assay, cell viability (CellTiter-Glo), cervical carcinoma cell lines; conditions: Homo sapiens; HeLa cells
renal cancer cell lines = test: Cell based assay, cell viability (CellTiter-Glo), renal cancer cell lines; conditions: Homo sapiens; ACHN cells
How it was run: as §1

[4] = MV4-11, blood cancer cell line MV-4-11, 72 hours, read-out: IC50, MV-4-11
[5] = blood cancer cell line Daudi, 72 hours, read-out: IC50, Daudi
[6] = blood cancer cell line HL-60, 72 hours, read-out: IC50, HL-60
[7] = blood cancer cell line Jurkat, 72 hours, read-out: IC50, Jurkat
[8] = blood cancer cell line MOLT-4, 72 hours, read-out: IC50, MOLT-4
[9] = blood cancer cell line Raji, 72 hours, read-out: IC50, Raji
[10] = blood cancer cell line Ramos (RA 1), 72 hours, read-out: IC50, Ramos (RA 1)
[11] = blood cancer cell line U-937, 72 hours, read-out: IC50, U-937
[12] = pancreatic cancer cell line AsPC-1, 72 hours, read-out: IC50, AsPC-1
[13] = pancreatic cancer cell line BxPC-3, 72 hours, read-out: IC50, BxPC-3
[14] = pancreatic cancer cell line CFPAC-1, 72 hours, read-out: IC50, CFPAC-1
[15] = pancreatic cancer cell line Capan-1, 72 hours, read-out: IC50, Capan-1
[16] = pancreatic cancer cell line Capan-2, 72 hours, read-out: IC50, Capan-2
[17] = pancreatic cancer cell line MIA PaCa-2, 72 hours, read-out: IC50, MIA PaCa-2
[18] = pancreatic cancer cell line PANC-1, 72 hours, read-out: IC50, PANC-1
[19] = U138-MG, U-138 MG cell line, read-out: IC50, Brain cancer cell line U-138 MG
[20] = T98G cell line, read-out: IC50, Brain cancer cell line T98G
[21] = U-251 MG cell line, read-out: IC50, Brain cancer cell line U-251 MG

Row | Compound | IC50 [1, 4] [nM] | IC50 [1, 5] [nM] | IC50 [1, 6] [nM] | IC50 [1, 7] [nM] | IC50 [1, 8] [nM] | IC50 [1, 9] [nM] | IC50 [1, 10] [nM] | IC50 [1, 11] [nM] | IC50 [2, 12] [nM] | IC50 [2, 13] [nM] | IC50 [2, 14] [nM] | IC50 [2, 15] [nM] | IC50 [2, 16] [nM] | IC50 [2, 17] [nM] | IC50 [2, 18] [nM] | IC50 (brain cancer cell lines; [19]) [nM] | IC50 (brain cancer cell lines; [20]) [nM] | IC50 (brain cancer cell lines; [21]) [nM] | IC50 [3] [nM] | IC50 (renal cancer cell lines) [nM]
1 | CC(=O)c1c([S+]([O-])CN2C(=O)c3ccccc3C2=O)[nH]c2c(Cl)ccc(Cl)c2c1=O (centres unmarked) [Compound 90, 2-(((3-acetyl-5,8-dichloro-4-oxo-1,4-dihydroquinolin-2-yl)sulfinyl)methyl)isoindoline-1,3-dione] | > 2000 | > 2000 | > 2000 | > 2000 | > 2000 | > 2000 | > 2000 | > 2000 | > 2000 | > 2000 | > 10000 | > 2000 | > 2000 | > 2000 | > 2000 | > 10000 | > 10000 | > 2000 | > 10000 | > 2000
2 | COC(=O)c1ccc(C[S+]([O-])c2[nH]c3c(Cl)ccc(Cl)c3c(=O)c2C(C)=O)cc1 (centres unmarked) [Compound 91, methyl 4-(((3-acetyl-5,8-dichloro-4-oxo-1,4-dihydroquinolin-2-yl)sulfinyl)methyl)benzoate] | > 2000 | > 2000 | > 2000 | 1730 | > 2000 | > 2000 | > 2000 | > 2000 | > 2000 | > 2000 | > 10000 | > 2000 | > 2000 | 1420 | > 2000 | > 2000 | > 10000 | > 2000 | > 10000 | > 2000
3 | COc1cccc2[nH]c(SCc3ccc(S(F)(F)(F)(F)F)cc3)c(C(C)=O)c(=O)c12 [Compound 92, 3-acetyl-5-methoxy-2-((4-(pentafluoro--sulfanyl)benzyl)thio)quinolin-4(1H)-one] | > 2000 | > 2000 | > 2000 | > 2000 | > 2000 | > 2000 | > 2000 | > 2000 | > 2000 | > 2000 | > 10000 | > 2000 | > 2000 | > 2000 | > 2000 | > 10000 | > 10000 | > 2000 | > 10000 | > 2000
4 | COc1cccc2[nH]c([S+]([O-])Cc3ccc(S(F)(F)(F)(F)F)cc3)c(C(C)=O)c(=O)c12 (centres unmarked) [Compound 93, 3-acetyl-5-methoxy-2-((4-(pentafluoro--sulfanyl)benzyl)sulfinyl)quinolin-4(1H)-one] | > 2000 | > 2000 | > 2000 | > 2000 | > 2000 | > 2000 | > 2000 | > 2000 | > 2000 | > 2000 | > 10000 | > 2000 | > 2000 | > 2000 | > 2000 | > 10000 | > 10000 | > 2000 | > 10000 | > 2000
5 | COc1cccc2[nH]c([S+]([O-])Cc3cc(C)on3)c(C(C)=O)c(=O)c12 (centres unmarked) [Compound 94, 3-acetyl-5-methoxy-2-(((5-methylisoxazol-3-yl)methyl)sulfinyl)quinolin-4(1H)-one] | 1380 | > 2000 | > 2000 | > 2000 | > 2000 | > 2000 | > 2000 | > 2000 | > 2000 | > 2000 | > 10000 | > 2000 | > 2000 | 1650 | > 2000 | > 2000 | > 10000 | > 2000 | > 10000 | > 2000
6 | Cc1cc(C[S+]([O-])c2[nH]c3c(Br)ccc(Cl)c3c(=O)c2C(=O)C2CC2)no1 (centres unmarked) [Compound 96, 8-bromo-5-chloro-3-(cyclopropanecarbonyl)-2-(((5-methylisoxazol-3-yl)methyl)sulfinyl)quinolin-4(1H)-one] | 1160 | 1370 | 1650 | 590 | > 2000 | 1660 | 1060 | > 2000 | > 2000 | > 2000 | > 10000 | > 2000 | > 2000 | 1140 | > 2000 | > 2000 | > 10000 | 1310 | > 2000 | 1670
7 | Cc1cc(C[S+]([O-])c2[nH]c3c(Cl)ccc(Cl)c3c(=O)c2C(=O)C2CC2)no1 (centres unmarked) [Compound 97, 5,8-dichloro-3-(cyclopropanecarbonyl)-2-(((5-methylisoxazol-3-yl)methyl)sulfinyl)quinolin-4(1H)-one] | 800 | 1040 | > 2000 | 510 | 770 | 1290 | 700 | 1350 | 1740 | > 2000 | > 10000 | 1520 | > 2000 | 860 | > 2000 | 1690 | > 10000 | 1120 | > 2000 | 1330
8 | CC(=O)c1c([S+]([O-])Cc2ccc(C#N)s2)[nH]c2c(Br)ccc(Cl)c2c1=O (centres unmarked) [Compound 98, 5-(((3-acetyl-8-bromo-5-chloro-4-oxo-1,4-dihydroquinolin-2-yl)sulfinyl)methyl)thiophene-2-carbonitrile] | 1240 | 1470 | > 2000 | 730 | > 2000 | > 2000 | 1230 | > 2000 | > 2000 | > 2000 | > 10000 | > 2000 | > 2000 | 1270 | > 2000 | > 2000 | > 10000 | 1250 | > 2000 | 1810
9 | CC(=O)c1c([S+]([O-])Cc2ccc(-n3cccn3)nc2)[nH]c2c(Br)ccc(Cl)c2c1=O (centres unmarked) [Compound 99, 2-(((6-(1H-pyrazol-1-yl)pyridin-3-yl)methyl)sulfinyl)-3-acetyl-8-bromo-5-chloroquinolin-4(1H)-one] | 950 | 1000 | > 2000 | 440 | 730 | 1250 | 840 | 1360 | 1490 | > 2000 | > 10000 | 1990 | > 2000 | 720 | > 2000 | 1160 | > 10000 | 790 | > 2000 | 1210
10 | CC(=O)c1c([S+]([O-])Cc2ccc(N)nc2)[nH]c2c(Br)ccc(Cl)c2c1=O (centres unmarked) [Compound 100, 3-acetyl-2-(((6-aminopyridin-3-yl)methyl)sulfinyl)-8-bromo-5-chloroquinolin-4(1H)-one] | > 2000 | > 2000 | > 2000 | > 2000 | > 2000 | > 2000 | > 2000 | > 2000 | > 2000 | > 2000 | > 10000 | > 2000 | > 2000 | > 2000 | > 2000 | > 10000 | > 10000 | > 2000 | > 2000 | > 2000
